# According to article PMC7503848 (International Journal of Molecular Sciences, 2020):
# “Also recorded” adds a separate entry of the source.
# Key:
# [1] = tested on: myosin A tail; assay: Far Western-Dot blot assay; type: binding, Plasmodium falciparum; conditions: 5 µg immobilized on nitrocellulose; 5 µg/mL biotinylated myosin A tail, 2 h room temperature; anti-biotin
# Procedure: For Far-Western Dot-blot assay, 5 µg each of ZA1S peptide, BSA, and non-specific peptide (N′- pSDNGpSGDD -C′) was immobilized on the strip. Subsequent to the drying of the membrane, it was blocked overnight at 4 °C, following which the second peptide myosin A was overlaid in 5 µg/mL of binding solution (1% BSA/PBST) on the strip for 2 h at room temperature. The strip was washed stringently, and the bound myosin A peptide was detected using an anti-biotin antibody (1:100 dilution) and HRP-conjugated secondary antibody.
# [2] = tested on: myosin A tail; assay: ELISA, myosin A tail on immobilized ZA1S; type: binding, Plasmodium falciparum; conditions: ZA1S coated, myosin A tail overlaid, anti-biotin antibody, 450 nm
# Text: All wells were put up in triplicates.
# [3] = tested on: P. falciparum 3D7; assay: Growth inhibition assay (GIA), P. falciparum 3D7; type: cell-based, Plasmodium falciparum
# Procedure: P. falciparum 3D7 strain was thawed and cultured in vitro in human O+ erythrocytes at 4% hematocrit using the method described previously. Briefly, parasites were cultured in medium containing RPMI 1640 (Invitrogen, Carlsbad, CA, USA), supplemented with 2 g/L NaHCO3 (Sigma, St. Louis, MO, USA), 5 g/L albumax (Invitrogen), 50 mg/L hypoxanthine (Sigma), and 10 µg/mL gentamicin sulfate (Invitrogen, Carlsbad, CA, USA) at a pH of 7.2 under mixed gas condition (5% CO2, 5% O2, […]) at 37 °C.
# For the growth inhibition assay, 36–38 h’ parasites were purified by percoll (GE Healthcare, Chicago, IL, USA) density gradient centrifugation. The assay was put on the late trophozoite stage in a 24-well plate in quadruplets in a total 500 µL volume/well. Initial parasitemia and hematocrit were adjusted to 1% and 2%, respectively. ZA1S peptide was added at a final concentration of 10 µM, 20 µM, and 40 µM. Control wells without any peptide or inhibitor were set to validate the normal growth rate of the parasite. After 24 h, a smear was made and fixed in methanol, followed by staining with 10% Giemsa (Sigma, St. Louis, MO, USA) for 10 min. The percent of infected erythrocytes containing different stages of the parasite was counted using a light microscope under 100X oil-immersion. The percent of growth inhibition was calculated using the following formula, and data were plotted graphically. % Growth inhibition = (Control-treated)/Control × 100
sequence,measurement,setting,value
"DIDIDIMHE [ZA1S, nine amino acid long shortened peptide derived from ZA1 (…)]",Detection of bound myosin A,[1],Myosin A was detected in the spot corresponding to ZA1S
same,Binding of myosin A tail to ZA1S,[2],significant binding
same,Invasion inhibition,"[3]; 10, 20, 40 µM ZA1S on late trophozoite/schizont stage, 24 h, 1% parasitemia, 2% hematocrit, human O+ erythrocytes, Giemsa smear",concentration-dependent increase in invasion inhibition; also recorded: abrogated the invasion of P. falciparum in RBCs
same,Completeness of parasite invasion inhibition,[3]; Pfal growth inhibition assay,we did not find a complete disruption of myosin A/MTIP complex so as to completely inhibit parasite invasion
same,Parasite morphology,"[3]; increasing concentrations of ZA1S (10, 20, 40 µM), 24 h, Giemsa smear",no change in the parasite morphology
